Values after ≈ are worked out from the molar mass of the structure shown. *1 amine or outer side, *2 acyl side, *3 side chain or, on linkers, in order; H or OH if unused. Where a SMILES comes first, the peptide text is derived from it. [ ]: non-standard residue; d: D form. The star is where a group is joined. X2 = CCCCCC[C@@H](OC[C@@H](C)N[*:1])[C@@H](C)C(=O)[*:2]; aThr = C[C@H](O)[C@H](N)C(=O)O; NMeL = CN[C@@H](CC(C)C)C(=O)O; Chg = N[C@H](C(=O)O)C1CCCCC1; NMeNva = CCC[C@H](NC)C(=O)O; Dap = NC[C@H](N)C(=O)O; Propyl(3-NH2) = NCCC*

As a reminder, the MIC is the lowest concentration that inhibits growth of the organism. A low value points to inhibition by little substance.

The test system of the test is Escherichia coli (E. coli) strain CFT073 ATCC 700928. In kind it is cell-based. The conditions noted are these: ATCC 700928, 22 h. The procedure, abridged:
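MICs were read after 22 h at 35 °C, with bacteria added to a final OD600 of 0.0005. Compounds were serially diluted 2-fold over ten concentrations from a top of 64, 4, 0.5 or 0.13 μg/mL (protocols 1–4). Medium was cation-adjusted Mueller Hinton II broth plus 0.002% Tween-80, following CLSI M07-A8.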
`CCCCCC[C@H]1OC(=O)CNC(=O)[C@H](CNC(N)=O)NC(=O)[C@H](CN)NC(=O)[C@H](C2CCCCC2)NC(=O)[C@H](CC(C)C)N(C)C(=O)[C@@H]1C` [Example 116, [(6S,9S,12S,15S,18R,19R)-9-(aminomethyl)-12-cyclohexyl-19-hexyl-15-isobutyl-16,18-dimethyl-2,5,8,11,14,17-hexaoxo-1-oxa-4,7,10,13,16-pentazacyclononadec-6-yl]methylurea]: the MIC stood at 50 µM (≈ 35.4 µg/mL). As to `CC(C)C[C@H]1C(=O)N[C@@H](C2CCCCC2)C(=O)N[C@@H](CN)C(=O)N[C@@H]([C@H](C)O)C(=O)NCC(=O)O[C@H](CCCCC(F)CF)[C@@H](C)C(=O)N1C` (stereo partly drawn) [Example 117, (6S,9S,12S,15S,18R,19R)-9-(aminomethyl)-12-cyclohexyl-19-(5,6-difluorohexyl)-15-isobutyl-16,18-dimethyl-6-[(1S)-1-hydroxyethyl]-1-oxa-4,7,10,13,16-pentazacyclononadecane-2,5,8,11,14,17-hexone], the MIC was 25 µM (≈ 17.9 µg/mL). `CCCCCC[C@H]1OC(=O)CNC(=O)[C@H]([C@H](C)O)NC(=O)[C@H](CO)NC(=O)[C@H](C2CCCCC2)NC(=O)[C@H](CC(C)C)N(C)C(=O)[C@@H]1C` [Example 118, (6S,9S,12S,15S,18R,19R)-12-cyclohexyl-19-hexyl-9-(hydroxymethyl)-15-isobutyl-16,18-dimethyl-6-[(1S)-1-hydroxyethyl]-1-oxa-4,7,10,13,16-pentazacyclononadecane-2,5,8,11,14,17-hexone] had an MIC of 4.4 µM (≈ 3 µg/mL). `CCCCCC[C@H]1OC(=O)CNC(=O)[C@H]([C@H](C)O)NC(=O)[C@H](CN)NC(=O)[C@H](C2CCCCC2)NC(=O)[C@H](CC(C)C)N(C)C(=O)[C@@H]1Cc1cccc(C)c1` [Example 119, (6S,9S,12S,15S,18R,19R)-9-(aminomethyl)-12-cyclohexyl-19-hexyl-15-isobutyl-16-methyl-18-(m-tolylmethyl)-6-[(1S)-1-hydroxyethyl]-1-oxa-4,7,10,13,16-pentazacyclononadecane-2,5,8,11,14,17-hexone] displayed an MIC of 3.1 µM (≈ 2.39 µg/mL). The figure for `CCCCCC[C@H]1OC(=O)CNC(=O)[C@H]([C@H](C)O)NC(=O)[C@H](CN)NC(=O)[C@H](C2CCCCC2)NC(=O)[C@H](CC(C)C)N(C)C(=O)[C@@H]1Cc1ccccc1C` [Example 120, (6S,9S,12S,15S,18R,19R)-9-(aminomethyl)-12-cyclohexyl-19-hexyl-15-isobutyl-16-methyl-18-(o-tolylinethyl)-6-[(1S)-1-hydroxyethyl]-1-oxa-4,7,10,13,16-pentazacyclononadecane-2,5,8,11,14,17-hexone] is 3.1 µM (≈ 2.39 µg/mL); for `CCCCCC[C@H]1OC(=O)CNC(=O)[C@H]([C@H](C)O)NC(=O)[C@H](CN)NC(=O)[C@H](C2CCCCC2)NC(=O)[C@H](CC(C)C)N(C)C(=O)[C@@H]1Cc1ccc(C(F)(F)F)cc1` [Example 121, (6S,9S,12S,15S,18R,19R)-9-(aminomethyl)-12-cyclohexyl-19-hexyl-15-isobutyl-16-methyl-6-[(1S)-1-hydroxyethyl]-18-[[4-(trifluoromethyl)phenyl]methyl]-1-oxa-4,7,10,13,16-pentazacyclononadecane-2,5,8,11,14,17-hexone] it is 6.3 µM (≈ 5.2 µg/mL). As for `CCC(F)CCC[C@H]1OC(=O)CNC(=O)[C@H]([C@H](C)O)NC(=O)[C@H](CN)NC(=O)[C@H]([C@H](C)CC)NC(=O)[C@H](CC(C)C)N(C)C(=O)[C@@H]1C` (stereo partly drawn) [Example 122, (6S,9S,12S,15S,18R,19R)-9-(aminomethyl)-19-(4-fluorohexyl)-15-isobutyl-16,18-dimethyl-6-[(1S)-1-hydroxyethyl]-12-[(1R)-1-methylpropyl]-1-oxa-4,7,10,13,16-pentazacyclononadecane-2,5,8,11,14,17-hexone], the MIC amounted to 25 µM (≈ 16.8 µg/mL). In turn, `CCCCCC[C@H]1OC(=O)CNC(=O)[C@H]([C@H](C)O)NC(=O)[C@H](CN)NC(=O)[C@H](C2CCCCC2)NC(=O)[C@H](CC(C)C)N(C)C(=O)[C@@H]1Cc1ccc(OC)cc1` [Example 123, (6S,9S,12S,15S,18R,19R)-9-(aminomethyl)-12-cyclohexyl-19-hexyl-6-[(1S)-1-hydroxyethyl]-15-isobutyl-18-[(4-methoxyphenyl)methyl]-16-methyl-1-oxa-4,7,10,13,16-pentazacyclononadecane-2,5,8,11,14,17-hexone] had an MIC of 12 µM (≈ 9.44 µg/mL). For the compound `CCCCCC[C@H]1OC(=O)CNC(=O)[C@H](CNC(C)=O)NC(=O)[C@H](CN)NC(=O)[C@H](C2CCCCC2)NC(=O)[C@H](CC(C)C)N(C)C(=O)[C@@H]1C` [Example 124, N-[[(6S,9S,12S,15S,18R,19R)-9-(aminomethyl)-12-cyclohexyl-19-hexyl-15-isobutyl-16,18-dimethyl-2,5,8,11,14,17-hexaoxo-1-oxa-4,7,10,13,16-pentazacyclononadec-6-yl]methyl]acetamide], the MIC was 18 µM (≈ 12.7 µg/mL). With `CCCCCC[C@H]1OC(=O)CNC(=O)[C@H]([C@H](C)O)NC(=O)[C@H]([C@H](C)N)NC(=O)[C@H](C2CCCCC2)NC(=O)[C@H](CC(C)C)N(C)C(=O)[C@@H]1C` [Example 125, (6S,9S,12S,15S,18R,19R)-12-cyclohexyl-19-hexyl-15-isobutyl-16,18-dimethyl-9-[(1S)-1-aminoethyl]-6-[(1S)-1-hydroxyetltyl]-1-oxa-4,7,10,13,16-pentazacyclononadecane-2,5,8,11,14,17-hexone], the MIC was 3.2 µM (≈ 2.22 µg/mL).

`CCCCCC(C)[C@H]1OC(=O)CNC(=O)[C@H]([C@H](C)O)NC(=O)[C@H](CN)NC(=O)[C@H](C2CCCCC2)NC(=O)[C@H](CC(C)C)N(C)C(=O)[C@@H]1C` (stereo partly drawn) [Example 126, (6S,9S,12S,15S,18R,19R)-9-(aminomethyl)-12-cyclohexyl-15-isobutyl-16,18-dimethyl-19-(1-methylhexyl)-6-[(1S)-1-hydroxyethyl]-1-oxa-4,7,10,13,16-pentazacyclononadecane-2,5,8,11,14,17-hexone] registered an MIC of 3.1 µM (≈ 2.15 µg/mL). In the case of `CCCCCC[C@H]1OC[C@@H](C)NC(=O)[C@H]([C@H](C)O)NC(=O)[C@H](CN)NC(=O)[C@H](C2CCCCC2)NC(=O)[C@H](CCC)N(C)C(=O)[C@@H]1C` [Example 127, (3R,6S,9S,12S,15S,18R,19R)-9-(aminomethyl)-12-cyclohexyl-19-hexyl-3,16,18-trimethyl-15-propyl-6-[(1S)-1-hydroxyethyl]-1-oxa-4,7,10,13,16-pentazacyclononadecane-5,8,11,14,17-pentone] (cyclo([Chg][Dap][aThr][X2][NMeNva])), the MIC is 4.4 µM (≈ 2.93 µg/mL). As to `CCCCCC[C@H]1OC[C@@H](C)NC(=O)[C@H](COC)NC(=O)[C@H](CN)NC(=O)[C@H](C2CCCCC2)NC(=O)[C@H](CC(C)C)N(C)C(=O)[C@@H]1C` [Example 128, (3R,6S,9S,12S,15S,18R,19R)-9-(aminomethyl)-12-cyclohexyl-19-hexyl-15-isobutyl-6-(methoxymethyl)-3,16,18-trimethyl-1-oxa-4,7,10,13,16-pentazacyclononadecane-5,8,11,14,17-pentone] (cyclo([Chg][Dap]S(Me)[X2][NMeL])), the MIC is 3.1 µM (≈ 2.11 µg/mL). Take `CCC[C@H]1C(=O)N[C@@H](C2CCCCCC2)C(=O)N[C@@H](CN)C(=O)N[C@@H]([C@H](C)O)C(=O)NCC(=O)O[C@H](CCC2CC3CCC2C3)[C@@H](C)C(=O)N1C` (stereo partly drawn) [Example 129, (6S,9S,12S,15S,18R,19R)-9-(aminomethyl)-12-cycloheptyl-16,18-dimethyl-19-(2-norbornan-2-ylethyl)-15-propyl-6-[(1S)-1-hydroxyethyl]-1-oxa-4,7,10,13,16-pentazacyclononadecane-2,5,8,11,14,17-hexone]: the MIC worked out at 0.66 µM (≈ 0.474 µg/mL). In the case of `CCCCCC[C@H]1OC[C@@H](C)NC(=O)[C@H](COCCCN)NC(=O)[C@H](CO)NC(=O)[C@H](C2CCCCC2)NC(=O)[C@H](CCC)N(C)C(=O)[C@@H]1C` [Example 130, (3R,6S,9S,12S,15S,18R,19R)-6-(3-aminopropoxymethyl)-12-cyclohexyl-19-hexyl-9-(hydroxymethyl)-3,16,18-trimethyl-15-propyl-1-oxa-4,7,10,13,16-pentazacyclononadecane-5,8,11,14,17-pentone] (cyclo([Chg]SS(Propyl(3-NH2))[X2][NMeNva])), the MIC was determined as 44 µM (≈ 31.3 µg/mL). Turning to `CCCCCC[C@H]1OC[C@@H](C)NC(=O)[C@H](COCCCN)NC(=O)[C@H](CN)NC(=O)[C@H](C2CCCCC2)NC(=O)[C@H](CC(C)C)N(C)C(=O)[C@@H]1C` [Example 131, (3R,6S,9S,12S,15S,18R,19R)-9-(aminomethyl)-6-(3-aminopropoxymethyl)-12-cyclohexyl-19-hexyl-15-isobutyl-3,16,18-trimethyl-1-oxa-4,7,10,13,16-pentazacyclononadecane-5,8,11,14,17-pentone] (cyclo([Chg][Dap]S(Propyl(3-NH2))[X2][NMeL])), the MIC worked out at 11 µM (≈ 7.96 µg/mL). For the compound `CCCCCC[C@H]1OC(=O)CNC(=O)[C@H]([C@H](C)O)NC(=O)[C@H](CO)NC(=O)[C@H](C2CCCCC2)NC(=O)[C@H](CCC)N(C)C(=O)[C@@H]1C` [Example 132, (6S,9S,12S,15S,18R,19R)-12-cyclohexyl-19-hexyl-9-(hydroxymethyl)-16,18-dimethyl-15-propyl-6-[(1S)-1-hydroxyethyl]-1-oxa-4,7,10,13,16-pentazacyclononadecane-2,5,8,11,14,17-hexone], the MIC was determined as 6.1 µM (≈ 4.07 µg/mL). Take `CCCCCC[C@H]1OC(=O)CNC(=O)[C@H](COCCCN)NC(=O)[C@H](CN)NC(=O)[C@H](C2CCCCCC2)NC(=O)[C@H](CCC)N(C)C(=O)[C@@H]1C` [Example 133, (6S,9S,12S,15S,18R,19R)-9-(aminomethyl)-6-(3-aminopropoxymethyl)-12-cycloheptyl-19-hexyl-16,18-dimethyl-15-propyl-1-oxa-4,7,10,13,16-pentazacyclononadecane-2,5,8,11,14,17-hexone]: the MIC was 3.1 µM (≈ 2.24 µg/mL).

The record behind these values is US11279735B2, “Cyclic peptide antibiotics” (priority 2017, dated 2022).
